Data taken from patent US20250262273A1, “MODIFIED CAVEOLIN-1 PEPTIDES FOR THE TREATMENT OF CHRONIC KIDNEY DISEASE” (Rein Therapeutics, Inc., priority 2021, published 2025).
Values joined by “and” are separate entries in the source; they are usually repeats but may differ in a detail not shown here. Equal entries are not always repeated. Non-standard residues stand in square brackets, D forms with d.

Experiments:
[1] = tested on: Col4a3−/− mice on a 129S1/SvlmJ background; test: Col4a3−/− mouse model of Alport syndrome, Study 1: two weeks of treatment; assay type: in vivo; details: for immunofluorescence staining of collagen I and nidogen on kidney tissue / immunofluorescence staining of collagen I and αSMA on kidney tissue: 0.0022 mg/g i.p. daily for 2 weeks, same finding in saline-treated mice
Description: (§1) The objective of this study was to evaluate the efficacy of the modified Cav-1 peptide APi2355 in ameliorating kidney fibrosis and disease using the Col4a3−/− mouse model of Alport syndrome. Alport syndrome mice (knockouts) have reduced Cav-1 expression in glomerulae tubules and develop glomerular fibrosis.
Col4a3−/− on the 129S1/SvlmJ develop end-stage renal disease at a faster rate compared to Col4a3−/− mice on the C57BL/6 background. Five week-old (Cohort 2) and 6 week-old (Cohort 1) Col4a3−/− mice on a 129S1/SvlmJ background were intraperitoneally injected daily with APi2355 (SEQ ID NO: 8, 0.0022 mg/g body weight) or with normal saline for 2 weeks. Urine was collected prior to treatment and on the day of sacrifice to monitor for glomerular permselectivity by measuring albumin to creatinine (A/C) ratios. Blood was collected on the day of sacrifice to monitor for glomerular filtration rate by blood urea nitrogen (BUN) assay and kidney tissue was collected following sacrifice to assess for renal injury and fibrosis. Mouse identification numbers were used to differentiate treatment groups.

[2] = tested on: Col4a3−/− mice on a 129S1/SvlmJ background; test: Col4a3−/− mouse model of Alport syndrome, Study 2: four weeks of treatment; assay type: in vivo; details: for Moderately Sclerotic Glom / Severely Sclerotic Glom / Moderately Sclerotic Glom (%) / Sclerotic Glom (%) / Severely Sclerotic Glom (%): 8 week-old, 4 weeks daily i.p. 0.0022 mg/g; for Moderately Sclerotic Glom / Severely Sclerotic Glom: count per individual mouse; for Moderately Sclerotic Glom (%) / Sclerotic Glom (%) / Severely Sclerotic Glom (%): per individual mouse
Procedure: as §1
Four week-old Col4a3−/− mice on a 129S1/SvlmJ background were intraperitoneally injected daily with APi2355 (SEQ ID NO: 8, 0.0022 mg/g body weight) or with normal saline for 4 weeks. Urine was collected prior to treatment at 4 weeks-old and at 6, 7, and 8-weeks-old following treatment to monitor for glomerular permselectivity by measuring albumin to creatinine (A/C) ratios. Blood was collected prior to treatment at 4 weeks-old and at 6 and 8 weeks-old following treatment to monitor for glomerular filtration rate using the BUN assay and kidney tissue was collected following sacrifice to assess for renal injury and fibrosis. Mouse identification numbers were used to differentiate treatment groups.

BLM-treated aged mice = test: Bleomycin model of lung fibrosis in aged mice, Study 2; assay type: in vivo; details: BLM 8 U/kg intratracheal, 73-74 week-old mice, 0.5 mg/mouse dry powder inhalation from day 14, sacrifice day 21, compared to control peptide
Procedure: (§2) The objective of this study was to evaluate the modified Cav-1 peptide CSP-7 in a bleomycin model of idiopathic pulmonary fibrosis and acute respiratory distress syndrome (ARDS). Aged male mice were selected to closely match the population of humans most vulnerable to ARDS.
Bleomycin (BLM, 8 U/kg) was administered intratracheally to 73-74 week-old mice (n=52) expecting approximately 50% loss of mice due to BLM-induced lung injury. On day 14 post-instillation, CSP-7 and a control peptide (CP) was administered to mice via dry powder inhalation (DPI) or intraperitoneal injection (IP) as shown in Table B below. On day 21 post-instillation, mice were sacrificed and blood and tissues were collected for analysis. Statistics were performed using Dunnett's multiple comparison test.

[3] = tested on: bleomycin-treated aged male mice; test: Bleomycin model of lung fibrosis in aged mice, Study 1 (Total Collagen Assay); assay type: in vivo, mouse; details: bleomycin 4 U/kg intratracheal, mice 74 to 76 weeks-old, dry powder inhalation, compared to control peptide
Description: as §2
Aged male mice, which have a higher burden of senescent cells and therefore less regenerative potential, were used to test the efficacy of CSP-7 (SEQ ID NO: 3). Mice were between 74 to 76 weeks-old at the time of intratracheal bleomycin installation (4 U/kg body weight; n=5-8 mice/group). The Total Collagen Assay (QuickZyme Biosciences) was used to assess total collagen in lung tissue, which first hydrolyzes proteins in the lung homogenate then oxidizes hydroxyproline and stains.

[4] = Cohort 1 (treatment start 6 weeks-old)
[5] = Cohort 2 (treatment start 5 weeks-old)
[6] = treatment starting at 4 weeks of age, 4 weeks, vs saline

Ac-aaEGKASFTTFTVTKGSaa-NH2 (Ac-[dA][dA]EGKASFTTFTVTKGS[dA][dA]-NH2; SMILES CC(=O)N[C@H](C)C(=O)N[C@H](C)C(=O)N[C@@H](CCC(=O)O)C(=O)NCC(=O)N[C@@H](CCCCN)C(=O)N[C@@H](C)C(=O)N[C@@H](CO)C(=O)N[C@@H](Cc1ccccc1)C(=O)N[C@H](C(=O)N[C@H](C(=O)N[C@@H](Cc1ccccc1)C(=O)N[C@H](C(=O)N[C@H](C(=O)N[C@H](C(=O)N[C@@H](CCCCN)C(=O)NCC(=O)N[C@@H](CO)C(=O)N[C@H](C)C(=O)N[C@H](C)C(N)=O)[C@@H](C)O)C(C)C)[C@@H](C)O)[C@@H](C)O)[C@@H](C)O) [APi2355, modified Cav-1 peptide]
immunofluorescence staining of collagen I and nidogen on kidney tissue [1, 4]: additional staining in sclerotic glomeruli
immunofluorescence staining of collagen I and αSMA on kidney tissue [1, 4]: additional staining in sclerotic glomeruli
kidney sclerosis, overall ([1]; Cohort 1 and Cohort 2, 2 weeks of treatment, same in saline-treated mice): severe sclerosis in the interstitium and many sclerotic glomeruli
immunofluorescence staining of collagen I and nidogen on kidney tissue [1, 5]: additional staining in sclerotic glomeruli
immunofluorescence staining of collagen I and αSMA on kidney tissue [1, 5]: additional staining in sclerotic glomeruli
Moderately Sclerotic Glom ([2]; female Col4a3−/− mice): 0 and 1 (2×)
Severely Sclerotic Glom ([2]; female Col4a3−/− mice): 4
Moderately Sclerotic Glom (%) ([2]; female Col4a3−/− mice): 0.0% and 2.0% and 2.1%
Sclerotic Glom (%) ([2]; female Col4a3−/− mice): 7.4% and 9.8% and 10.6%
Severely Sclerotic Glom (%) ([2]; female Col4a3−/− mice): 7.4% and 7.8% and 8.5%
percentage of sclerotic glomeruli as assayed by collagen I deposition ([2]; females, treatment starting at 4 weeks of age, 4 weeks, vs saline): reduced the percentage of sclerotic glomeruli in females
Moderately Sclerotic Glom ([2]; male Col4a3−/− mouse): 6
Severely Sclerotic Glom ([2]; male Col4a3−/− mouse): 21
Moderately Sclerotic Glom (%) ([2]; male Col4a3−/− mouse): 15.0%
Sclerotic Glom (%) ([2]; male Col4a3−/− mouse): 67.5%
Severely Sclerotic Glom (%) ([2]; male Col4a3−/− mouse): 52.5%
glomerular fibrosis ([2]; mouse model of Alport syndrome, overall conclusion): reduced glomerular fibrosis
progression of BUN [2, 6]: did not slow the progression
progression of albuminuria [2, 6]: did not slow the progression

FTTFTVT (Modified Caveolin-1 peptide) [CSP-7, seven amino acid fragment of the human CSD of caveolin-1]
total collagen in the lung (BLM-treated aged mice): reduction in total collagen
total collagen in the lung [3]: reduction in total collagen
